Legend:
wheat = test: Test A pre-/postemergence herbicide test; assay type: in vivo, Triticum aestivum; settings: for Wheat plant response rating: Preemergence, visual rating on 0 to 100 scale (0 no effect, 100 complete control)
In short: (§1)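 Planted in loam–sand blend; treated the same day preemergence by directed soil spray, while separately grown plants at one- to two-leaf stage got postemergence spray. Compared visually with untreated controls after approximately 10 days; 100 means complete control.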

barnyardgrass [1] = test: Test A pre-/postemergence herbicide test; assay type: in vivo, Echinochloa crus-galli; settings: for Barnyardgrass plant response rating: Preemergence, visual rating on 0 to 100 scale (0 no effect, 100 complete control)
In short: as §1

velvetleaf = test: Test A pre-/postemergence herbicide test; assay type: in vivo, Abutilon theophrasti; settings: for Velvetleaf plant response rating: Preemergence, visual rating on 0 to 100 scale (0 no effect, 100 complete control)
In short: as §1

pigweed = test: Test A pre-/postemergence herbicide test; assay type: in vivo, Amaranthus retroflexus; settings: for Pigweed plant response rating: Preemergence, visual rating on 0 to 100 scale (0 no effect, 100 complete control)
In short: as §1

corn = test: Test A pre-/postemergence herbicide test; assay type: in vivo, Zea mays; settings: for Corn plant response rating: Preemergence, visual rating on 0 to 100 scale (0 no effect, 100 complete control)
In short: as §1

ducksalad = test: Test B flooded paddy test; assay type: in vivo, Heteranthera limosa; settings: 250 g ai/ha, Flood; scale of 0 to 100 where 0 is no effect and 100 is complete control
In short: (§2)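 Paddy-water application at a 3 cm flood, young plants having two leaves. Water level maintained; greenhouse, 13–15 days; visual 0–100 control rating.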

sedge, umbrella = test: Test B flooded paddy test; assay type: in vivo, Cyperus difformis; settings: 250 g ai/ha, Flood; scale of 0 to 100 where 0 is no effect and 100 is complete control
In short: as §2

giant foxtail = test: Test A pre-/postemergence herbicide test; assay type: in vivo, Setaria faberii; settings: for Foxtail, Giant plant response rating: Preemergence, visual rating on 0 to 100 scale (0 no effect, 100 complete control)
In short: as §1

rice = test: Test B flooded paddy test; assay type: in vivo, Oryza sativa; settings: 250 g ai/ha, Flood; scale of 0 to 100 where 0 is no effect and 100 is complete control
In short: as §2

barnyardgrass [2] = test: Test B flooded paddy test; assay type: in vivo, Echinochloa crus-galli; settings: 250 g ai/ha, Flood; scale of 0 to 100 where 0 is no effect and 100 is complete control
In short: as §2

morningglory = test: Test A pre-/postemergence herbicide test; assay type: in vivo, Ipomoea spp.; settings: for Morningglory plant response rating: Preemergence, visual rating on 0 to 100 scale (0 no effect, 100 complete control)
In short: as §1

crabgrass, large = test: Test A pre-/postemergence herbicide test; assay type: in vivo, Digitaria sanguinalis; settings: for Crabgrass, Large plant response rating: Preemergence, visual rating on 0 to 100 scale (0 no effect, 100 complete control)
In short: as §1

[3] = Postemergence, 125 g ai/ha, 0 to 100 scale, 0 no effect, 100 complete control
[4] = Postemergence, 500 g ai/ha, 0 to 100 scale (0 no effect, 100 complete control)
[5] = preemergence, 500 g ai/ha, 0 to 100 scale
[6] = preemergence, 500 g ai/ha, 0 to 100 scale (0 no effect, 100 complete control)

Compound	Plant response rating, Wheat (wheat; [3])	Plant response rating, Wheat (wheat; [4])	Wheat plant response rating (wheat; 125 g ai/ha)	Plant response rating, Wheat (wheat; [5])	Plant response rating, Barnyardgrass (barnyardgrass [1]; [3])	Plant response rating, Barnyardgrass (barnyardgrass [1]; [4])	Barnyardgrass plant response rating (barnyardgrass [1]; 125 g ai/ha)	Plant response rating, Barnyardgrass (barnyardgrass [1]; [6])	Plant response rating, Velvetleaf (velvetleaf; [3])	Plant response rating, Velvetleaf (velvetleaf; [4])	Velvetleaf plant response rating (velvetleaf; 125 g ai/ha)	Plant response rating, Velvetleaf (velvetleaf; [5])	Plant response rating, Pigweed (pigweed; [3])	Plant response rating, Pigweed (pigweed; [4])	Pigweed plant response rating (pigweed; 125 g ai/ha)	Plant response rating, Pigweed (pigweed; [5])	Plant response rating, Corn (corn; [3])	Plant response rating, Corn (corn; [4])	Corn plant response rating (corn; 125 g ai/ha)	Plant response rating, Corn (corn; [5])	other results
O=C1NCC(c2ccc(F)c(F)c2)C1C(=O)Nc1ccccc1OC(F)(F)F (stereo not drawn) [Compound 54]	0	0	0	20	0	0	0	20	0	0	0	0	0	0	0	0	0	0	0	0	Plant response rating, Ducksalad (ducksalad): 70; Plant response rating, Sedge, Umbrella (sedge, umbrella): 0; Plant response rating, Foxtail, Giant (giant foxtail; [3]): 60; Plant response rating, Foxtail, Giant (giant foxtail; [4]): 70; Foxtail, Giant plant response rating (giant foxtail; 125 g ai/ha): 90; Plant response rating, Foxtail, Giant (giant foxtail; [5]): 90; Plant response rating, Rice (rice): 20; Plant response rating, Barnyardgrass (barnyardgrass [2]): 0; Plant response rating, Morningglory (morningglory; [3]): 0; Plant response rating, Morningglory (morningglory; [4]): 0; Morningglory plant response rating (morningglory; 125 g ai/ha): 0; Plant response rating, Morningglory (morningglory; [5]): 0; Plant response rating, Crabgrass, Large (crabgrass, large; [3]): 70; Plant response rating, Crabgrass, Large (crabgrass, large; [4]): 80; Crabgrass, Large plant response rating (crabgrass, large; 125 g ai/ha): 90; Plant response rating, Crabgrass, Large (crabgrass, large; [5]): 90
Cc1cccc(NC(=O)C2C(=O)NCC2c2ccc(F)c(F)c2)c1 (stereo not drawn) [Compound 56]	0	0	0	0	0	50	0	40	0	0	0	0	0	0	0	0	0	0	0	0	Plant response rating, Ducksalad (ducksalad): 0; Plant response rating, Sedge, Umbrella (sedge, umbrella): 0; Plant response rating, Foxtail, Giant (giant foxtail; [3]): 20; Plant response rating, Foxtail, Giant (giant foxtail; [4]): 60; Foxtail, Giant plant response rating (giant foxtail; 125 g ai/ha): 20; Plant response rating, Foxtail, Giant (giant foxtail; [5]): 50; Plant response rating, Rice (rice): 0; Plant response rating, Barnyardgrass (barnyardgrass [2]): 0; Plant response rating, Morningglory (morningglory; [3]): 0; Plant response rating, Morningglory (morningglory; [4]): 0; Morningglory plant response rating (morningglory; 125 g ai/ha): 0; Plant response rating, Morningglory (morningglory; [5]): 0; Plant response rating, Crabgrass, Large (crabgrass, large; [3]): 50; Plant response rating, Crabgrass, Large (crabgrass, large; [4]): 80; Crabgrass, Large plant response rating (crabgrass, large; 125 g ai/ha): 60; Plant response rating, Crabgrass, Large (crabgrass, large; [5]): 90

Reference: patent US10294202B2, “Pyrrolidinones as herbicides” (FMC Corporation, priority 2013, dated 2019)
